Results taken from the NIST ThermoML archive (doi:10.1016/j.jct.2005.07.009).

What was measured:
[1] = xn = mol fraction of the nth substance listed; conditions: 298.15 K, 101 kPa, Liquid, Vibrating tube method
[2] = excess molar enthalpy (molar enthalpy of mixing); xn = mol fraction of the nth substance listed; conditions: 298.15 K, 101 kPa, Liquid

BrCCCBr [1,3-dibromopropane] + CCOC=O
Conditions	excess molar enthalpy [kcal/mol]	mass density [kg/m3]
[1], x2 = 0.0717	–	1908.92
[1], x2 = 0.1454	–	1844.11
[1], x2 = 0.2149	–	1781.28
[1], x2 = 0.2791	–	1721.26
[1], x2 = 0.3468	–	1656.48
[1], x2 = 0.4099	–	1594.33
[1], x2 = 0.4685	–	1534.98
[1], x2 = 0.5893	–	1407.8
[1], x2 = 0.6459	–	1345.63
[1], x2 = 0.6988	–	1285.95
[1], x2 = 0.7521	–	1224.47
[1], x2 = 0.8028	–	1164.26
[1], x2 = 0.8548	–	1101.12
[1], x2 = 0.9056	–	1037.67
[2], x2 = 0.0727	0.0421	–
[2], x2 = 0.1458	0.0721	–
[2], x2 = 0.2104	0.0959	–
[2], x2 = 0.2886	0.113	–
[2], x2 = 0.3588	0.123	–
[2], x2 = 0.4253	0.126	–
[2], x2 = 0.4828	0.125	–
[2], x2 = 0.5358	0.122	–
[2], x2 = 0.5812	0.116	–
[2], x2 = 0.6324	0.109	–
[2], x2 = 0.6925	0.0965	–
[2], x2 = 0.7529	0.0811	–
[2], x2 = 0.8177	0.062	–
[2], x2 = 0.882	0.0414	–
[2], x2 = 0.9449	0.021	–

BrCCCCBr [1,4-dibromobutane] + CCCC(=O)OCC
Conditions	excess molar enthalpy [kcal/mol]	mass density [kg/m3]
[1], x2 = 0.1092	–	1704.75
[1], x2 = 0.1651	–	1647.4
[1], x2 = 0.2725	–	1539.36
[1], x2 = 0.387	–	1427.18
[1], x2 = 0.4481	–	1368.56
[1], x2 = 0.502	–	1317.46
[1], x2 = 0.6423	–	1187.58
[1], x2 = 0.6846	–	1149.12
[1], x2 = 0.7489	–	1091.51
[1], x2 = 0.8041	–	1042.59
[1], x2 = 0.9323	–	931.23
[2], x2 = 0.0504	0.00535	–
[2], x2 = 0.1096	0.00903	–
[2], x2 = 0.173	0.0111	–
[2], x2 = 0.2384	0.0112	–
[2], x2 = 0.2992	0.00939	–
[2], x2 = 0.3567	0.00607	–
[2], x2 = 0.4115	0.000311	–
[2], x2 = 0.4617	-0.00511	–
[2], x2 = 0.5078	-0.00975	–
[2], x2 = 0.5351	-0.0127	–
[2], x2 = 0.5479	-0.0133	–
[2], x2 = 0.5908	-0.0158	–
[2], x2 = 0.6504	-0.0171	–
[2], x2 = 0.7147	-0.0172	–
[2], x2 = 0.7818	-0.0157	–
[2], x2 = 0.8513	-0.0125	–
[2], x2 = 0.9352	-0.006	–

BrCCCCBr [1,4-dibromobutane] + CCCCC(=O)OCC
Conditions	excess molar enthalpy [kcal/mol]	mass density [kg/m3]
[1], x2 = 0.0539	–	1762.5
[1], x2 = 0.109	–	1704.93
[1], x2 = 0.2129	–	1598.64
[1], x2 = 0.2678	–	1543.48
[1], x2 = 0.3262	–	1485.57
[1], x2 = 0.3815	–	1431.53
[1], x2 = 0.469	–	1347.31
[1], x2 = 0.5155	–	1303.25
[1], x2 = 0.554	–	1267.17
[1], x2 = 0.6207	–	1205.19
[1], x2 = 0.7373	–	1099.12
[1], x2 = 0.8643	–	986.49
[1], x2 = 0.9324	–	927.28
[2], x2 = 0.0901	0.0101	–
[2], x2 = 0.1832	0.0134	–
[2], x2 = 0.2717	0.0117	–
[2], x2 = 0.3528	0.00638	–
[2], x2 = 0.4123	-0.00198	–
[2], x2 = 0.4598	-0.00851	–
[2], x2 = 0.4897	-0.0118	–
[2], x2 = 0.5049	-0.0126	–
[2], x2 = 0.5621	-0.0171	–
[2], x2 = 0.6266	-0.0197	–
[2], x2 = 0.6967	-0.0208	–
[2], x2 = 0.7722	-0.0197	–
[2], x2 = 0.852	-0.016	–
[2], x2 = 0.9288	-0.00963	–

BrCCCCBr [1,4-dibromobutane] + CCOC(=O)CC
Conditions	excess molar enthalpy [kcal/mol]	mass density [kg/m3]
[1], x2 = 0.1225	–	1707.2
[1], x2 = 0.1797	–	1654.41
[1], x2 = 0.2372	–	1601.35
[1], x2 = 0.299	–	1544.11
[1], x2 = 0.3597	–	1488.19
[1], x2 = 0.479	–	1376.63
[1], x2 = 0.5912	–	1271.5
[1], x2 = 0.6516	–	1214.75
[1], x2 = 0.7649	–	1107.74
[1], x2 = 0.8159	–	1059.5
[1], x2 = 0.8793	–	999.28
[1], x2 = 0.9306	–	950.5
[2], x2 = 0.0536	0.00581	–
[2], x2 = 0.1124	0.00918	–
[2], x2 = 0.1759	0.0118	–
[2], x2 = 0.2389	0.0119	–
[2], x2 = 0.2996	0.0102	–
[2], x2 = 0.357	0.00696	–
[2], x2 = 0.4101	0.00217	–
[2], x2 = 0.4558	-0.00277	–
[2], x2 = 0.4841	-0.00619	–
[2], x2 = 0.4948	-0.00739	–
[2], x2 = 0.5354	-0.012	–
[2], x2 = 0.5917	-0.0157	–
[2], x2 = 0.653	-0.0173	–
[2], x2 = 0.72	-0.0174	–
[2], x2 = 0.7905	-0.015	–
[2], x2 = 0.8639	-0.011	–
[2], x2 = 0.9353	-0.00614	–

BrCCCCBr [1,4-dibromobutane] + CCOC(C)=O
Conditions	excess molar enthalpy [kcal/mol]	mass density [kg/m3]
[1], x2 = 0.0713	–	1763.64
[1], x2 = 0.1362	–	1711.83
[1], x2 = 0.2057	–	1654.85
[1], x2 = 0.2657	–	1604.71
[1], x2 = 0.3922	–	1495.44
[1], x2 = 0.4539	–	1440.32
[1], x2 = 0.5154	–	1384.15
[1], x2 = 0.5749	–	1328.61
[1], x2 = 0.683	–	1224.74
[1], x2 = 0.7406	–	1167.52
[1], x2 = 0.7867	–	1121.03
[1], x2 = 0.8486	–	1057.13
[1], x2 = 0.9	–	1002.89
[1], x2 = 0.9494	–	949.81
[2], x2 = 0.0724	0.0259	–
[2], x2 = 0.1477	0.0417	–
[2], x2 = 0.2228	0.0516	–
[2], x2 = 0.2954	0.0559	–
[2], x2 = 0.3654	0.0562	–
[2], x2 = 0.4273	0.0538	–
[2], x2 = 0.4836	0.0497	–
[2], x2 = 0.5346	0.0447	–
[2], x2 = 0.5727	0.0394	–
[2], x2 = 0.6226	0.0329	–
[2], x2 = 0.6702	0.0265	–
[2], x2 = 0.7257	0.0205	–
[2], x2 = 0.7826	0.0143	–
[2], x2 = 0.8416	0.00927	–
[2], x2 = 0.8982	0.00521	–
[2], x2 = 0.9516	0.00241	–

BrCCCCBr [1,4-dibromobutane] + CCOC=O
Conditions	excess molar enthalpy [kcal/mol]	mass density [kg/m3]
[1], x2 = 0.0952	–	1765.32
[1], x2 = 0.1744	–	1716.81
[1], x2 = 0.2604	–	1660.33
[1], x2 = 0.3295	–	1611.72
[1], x2 = 0.4012	–	1557.95
[1], x2 = 0.4668	–	1505.48
[1], x2 = 0.5355	–	1446.96
[1], x2 = 0.5888	–	1398.87
[1], x2 = 0.6436	–	1346.56
[1], x2 = 0.6981	–	1291.4
[1], x2 = 0.7934	–	1186.14
[1], x2 = 0.9238	–	1023.59
[1], x2 = 0.9623	–	970.42
[2], x2 = 0.0799	0.0549	–
[2], x2 = 0.1652	0.0897	–
[2], x2 = 0.2469	0.118	–
[2], x2 = 0.3246	0.135	–
[2], x2 = 0.397	0.145	–
[2], x2 = 0.4607	0.149	–
[2], x2 = 0.5109	0.147	–
[2], x2 = 0.5179	0.148	–
[2], x2 = 0.5525	0.145	–
[2], x2 = 0.5649	0.143	–
[2], x2 = 0.5973	0.14	–
[2], x2 = 0.6082	0.137	–
[2], x2 = 0.6459	0.131	–
[2], x2 = 0.6929	0.121	–
[2], x2 = 0.7514	0.103	–
[2], x2 = 0.8051	0.0847	–
[2], x2 = 0.8598	0.0615	–
[2], x2 = 0.9121	0.0378	–
[2], x2 = 0.9614	0.0142	–

BrCCCCCBr [1,5-dibromopentane] + CCCC(=O)OCC
Conditions	excess molar enthalpy [kcal/mol]	mass density [kg/m3]
[1], x2 = 0.059	–	1646.96
[1], x2 = 0.1242	–	1594.68
[1], x2 = 0.1821	–	1548
[1], x2 = 0.238	–	1502.9
[1], x2 = 0.3008	–	1451.99
[1], x2 = 0.4202	–	1354.48
[1], x2 = 0.5373	–	1258.57
[1], x2 = 0.5953	–	1210.74
[1], x2 = 0.6536	–	1162.53
[1], x2 = 0.7109	–	1115.08
[1], x2 = 0.7685	–	1067.15
[1], x2 = 0.8314	–	1014.81
[1], x2 = 0.8895	–	966.17
[2], x2 = 0.0632	0.00545	–
[2], x2 = 0.1296	0.00906	–
[2], x2 = 0.1974	0.0117	–
[2], x2 = 0.2617	0.012	–
[2], x2 = 0.3247	0.0105	–
[2], x2 = 0.3843	0.00777	–
[2], x2 = 0.4396	0.00466	–
[2], x2 = 0.4909	0.000693	–
[2], x2 = 0.5367	-0.00239	–
[2], x2 = 0.5745	-0.00511	–
[2], x2 = 0.6072	-0.00657	–
[2], x2 = 0.6211	-0.00755	–
[2], x2 = 0.6798	-0.00937	–
[2], x2 = 0.7429	-0.0104	–
[2], x2 = 0.8114	-0.00944	–
[2], x2 = 0.878	-0.00696	–
[2], x2 = 0.9431	-0.00356	–

BrCCCCCBr [1,5-dibromopentane] + CCCCC(=O)OCC
Conditions	excess molar enthalpy [kcal/mol]	mass density [kg/m3]
[1], x2 = 0.0539	–	1645.46
[1], x2 = 0.1105	–	1595.11
[1], x2 = 0.1636	–	1548.32
[1], x2 = 0.2206	–	1498.77
[1], x2 = 0.3289	–	1405.86
[1], x2 = 0.3899	–	1354.43
[1], x2 = 0.4455	–	1307.95
[1], x2 = 0.5024	–	1260.98
[1], x2 = 0.5632	–	1211.27
[1], x2 = 0.5935	–	1186.69
[1], x2 = 0.6792	–	1117.97
[1], x2 = 0.7412	–	1068.93
[1], x2 = 0.803	–	1020.6
[1], x2 = 0.8672	–	970.91
[1], x2 = 0.9294	–	923.31
[2], x2 = 0.0537	0.00703	–
[2], x2 = 0.1124	0.012	–
[2], x2 = 0.1746	0.0158	–
[2], x2 = 0.2384	0.0178	–
[2], x2 = 0.3005	0.0179	–
[2], x2 = 0.3573	0.0158	–
[2], x2 = 0.4121	0.012	–
[2], x2 = 0.4619	0.00674	–
[2], x2 = 0.5075	0.00098	–
[2], x2 = 0.5483	-0.00344	–
[2], x2 = 0.5745	-0.00566	–
[2], x2 = 0.6374	-0.00863	–
[2], x2 = 0.7074	-0.01	–
[2], x2 = 0.7809	-0.00994	–
[2], x2 = 0.8572	-0.00848	–
[2], x2 = 0.9337	-0.00483	–
